Test results published in patent publication US20090275496A1, “Effective quantitation of complex peptide mixtures in tissue samples and improved therapeutic methods” (Peptimmune, Inc., priority 2004, published 2009).

Legend:
[1] = tested on: anti-PI-2301 biotinylated antibody (bAb); assay: Direct competition ELISA, specificity of the anti-PI-2301 biotinylated antibody; type: binding, rabbit
Procedure: A direct competition ELISA was carried out for the detection and quantitation of PI-2301, an RSP composition. […] Unbound material was washed away and diluted streptavidin-horseradish peroxidase (HRP) conjugate was added to the wells. After washing away any unbound streptavidin conjugate, substrate for HRP catalyzed […] was added to the wells and incubated, yielding a blue color that turns yellow when stop solution is added. The optical density of the color was measured at 450 nm using a microtiter plate reader (for example, Bio-Tek ELx405) and a standard curve was generated.
Specificity is the ability of a method to measure the material of interest to the exclusion of other similar compounds. In this method, specificity is a function of the anti-PI-2301 biotinylated antibody (bAb). If the bAb recognizes, and binds preferentially to, the compound in the serum the bAb will be washed away and the final A450 value will be low. […] Table 5 summarizes the A450 specificity data for 3 compounds spiked into mouse serum.

[2] = Serum concentration and bioavailability after administration to mice (ELISA); type: in vivo, CD-1 mice
Procedure: The blood sample was allowed to clot at room temperature for 15-30 minutes and then the tube was centrifuged at 4° C., 10,000 RPM, for 10 minutes in order to isolate serum. Serum was collected, aliquoted, and stored −80° C. for future testing.
After washing away any unbound conjugate, substrate was added to the wells and incubated, yielding a blue color that turned yellow when stop solution was added. The optical density was measured at 450 nm and a standard curve was generated.

[3] = tested on: myeloid cells isolated from femurs of immunologically naive mice; assay: In vitro effects on macrophages: cytokines and chemokines in supernatants; type: cell-based; conditions: culture supernatant
Description: Isolated cells were labeled with magnetic beads and T- and B-cells were depleted from the sample. […] TNFα, IL-6, CXCL1 and CXCL2 as inflammatory markers, and IL-12p70, CXCL13, and CCL22 as regulatory markers.

HLA-DR2 (DRB1*1501) = HLA-DR2 (DRB1*1501) (Homo sapiens, UniProt P01903+P01911); conditions: MS-associated, peptide-specific manner; cited from earlier work
HLA-DR1 (DRB1*0101) = HLA-DR1 (DRB1*0101) (Homo sapiens, UniProt P01903+P01911, A100R/D57E/F55L/F60I/F76Y/I96L/L162R/M171V/P40L/Q125E/R42F/V115G/Y59C); conditions: RA-associated, peptide-specific manner; cited from earlier work
HLA-DR4 (DRB1*0401) = HLA-DR4 (DRB1*0401) (Homo sapiens, UniProt P01903+P01911, A100K/A169T/F76Y/I96L/K127E/L162R/M171V/N62H/P40V/Q125Y/R42H/S133A/S149N/S66Y/V115G/V209L/W38E); conditions: RA-associated, peptide-specific manner; cited from earlier work
MS = conditions: Bornstein 1987; Johnson 1995; cited from earlier work

## glatiramer acetate [Cop-1]
[1]
  detection by the antibody for PI-2301: detects Cop-1 efficiently
[2]; after subcutaneous administration to mice
  time of peak serum concentration: about 15 minutes
[2]; mice, single subcutaneous or intravenous administration
  administered amount available in the plasma (bioavailability): About 8.5%
[3]
  expression of CXCL1: no significant effect
  expression of CXCL2: no significant effect
  expression of IL-6: no significant effect
  expression of TNFα: no significant effect
HLA-DR2 (DRB1*1501)
  binding to purified HLA-DR2 (DRB1*1501): high affinity
HLA-DR1 (DRB1*0101)
  binding to purified HLA-DR1 (DRB1*0101): high affinity
HLA-DR4 (DRB1*0401)
  binding to purified HLA-DR4 (DRB1*0401): high affinity
MS
  effect on MS in patients: ameliorate MS but does not suppress the disease entirely
